The target in data set [1] is T1, TTR (Homo sapiens, UniProt P02766).
T1 construct: purchased Sigma; host or cells: human plasma
Description: Isothermal titration calorimetry (ITC). The format is binding. Particulars: for ΔG1 / ΔH1 / ΔG2 / ΔH2: ITC; for ΔG1 / ΔH1: first binding site; for ΔG2 / ΔH2: second binding site; for Kd: TTR 2 μM titrated with 25 μM compound, PBS pH 7.4, 25° C., two-site negative cooperativity model. In general terms: In ITC the heat of successive injections is recorded.

In data set [2] the target is T2, V122I-TTR in serum from FAC patients (Homo sapiens, UniProt P02766, V142I).
T2 construct: stabilization of V122I-TTR in serum from two FAC patients; from tissue; host or cells: serum of two FAC patients carrying V122I
As to the kind of experiment: Serum V122I-TTR tetramer stability against acid denaturation. The format is biochemical. The following applies: 10 μM compound, pH 4.0, 72 hours.

The test system of data set [3] is Hep3B, Jurkat, MCF7 and HeLa cell lines. As to the kind of experiment: Cytotoxicity assay (MTT), panel of four cell lines. It is filed as cell-based. Particulars: 1 to 100 μM, 24 h. On the procedure:
(§1) Cell viability results are reported relative to cells treated with vehicle only (100% cell viability).
(§2) 5×10^3 cells were seeded on 80 μl growth media (except 2.5×10^4 Jurkat cells) in each well in 96-well plates and incubate O/N at 37° C. 20 μl of fresh growth media containing each compound were added into each well to make the final concentration ranging from 1-100 μM. DMSO was used for normalization. Cell titer was tested every 24 h using CellTiter 96 non-radioactive cell proliferation assay kit (Promega, Madison, Wis.) at 560 nm absorbance.

The target in data set [4] is T3, WT-TTR in human serum (Homo sapiens, UniProt P02766). Description: Serum WT-TTR tetramer stability against acid denaturation. Particulars: 10 μM compound, human serum (TTR ~5 μM), pH 4.0, 72 hours.
Description: Serum samples were incubated in acetate buffer (pH 4.0), with DMSO or 10 μM of test compound, for the desired time period (0 and 72 hours) before cross-linking, SDS-PAGE, and immunoblotting. The density of all TTR bands (TTR tetramer; arrowhead and TTR bound to RBP; solid arrow) was quantified using an Odyssey infrared imaging system (LI-COR Bioscience, Lincoln, Nebr.) and reported as % TTR tetramer=100×[(tetramer & tetramer+RBP density, 72 hrs)/(tetramer & tetramer+RBP density of DMSO, 0 hrs)].
All compounds were 10 mM stock solutions in DMSO and diluted accordingly with DMSO for different assays. 0.5 μl of each compound was added to 24.5 μl of human serum (from human male AB plasma, Sigma) to make the final concentration of 10 μM. The samples were incubated at 37° C. for 2 h, and then 10 μl of the samples were diluted 1:10 with acidification buffer (pH 4.0, 100 mM sodium acetate, 100 mM KCl, 1 mM EDTA, 1 mM DTT). […] All the samples were denatured with adding 100 μl SDS gel loading buffer and boiled for 5 min. […] The normalization was done by dividing each value of the TTR tetramer band intensity by the average of all the values at time 0.
The compounds were tested for their ability to stabilize WT-TTR in human serum (FIG. 5). […] Test compounds (10 μM) were pre-incubated with human serum (TTR ˜5 μM) and the pH was lowered to pH 4.0 to induce aggregation. Aliquots, taken at 0 and 72 hours, were treated with glutaraldehyde to cross-link TTR tetramers that remained intact in the serum sample. SDS-PAGE followed by immunoblot analysis was used to measure the amount of intact TTR tetramer after 72 hours of acid treatment in the presence and absence of test compounds.
The target of data set [5] is T3, WT-TTR in human serum. As to the kind of experiment: Serum TTR selectivity assay (covalent probe 6 competition). The format is binding. Further details: tissue Sigma-Aldrich; host or cells: human serum (A4: from human male AB plasma). Particulars: 10 μM compound, 3.6 μM probe, human serum (TTR ~5 μM), after 6 hours; lower = more selective.
Description: 98 μL of human serum (Sigma-Aldrich) was mixed with 1 μL of test compounds (1.0 mM stock solution in DMSO, final concentration: 10 μM) and 1 μL of covalent probe 6 (0.36 mM stock solution in DMSO: final concentration: 3.6 μM). The fluorescence changes (λex=328 nm and λem=384 nm) were monitored every 10 min using a microplate spectrophotometer reader (Molecular Devices SpectraMax M5) for 6 h at 25° C.
Covalent probe 6 binds selectively to TTR in serum and covalently modifies K15, creating a fluorescent conjugate. Ligands that bind with high selectivity to TTR in serum decrease covalent probe 6 binding to TTR and therefore lower the fluorescence. All test compounds (10 μM) were incubated with human serum (WT-TTR concentration ˜5 μM) in the presence of covalent probe 6 (3.6 μM) (FIG. 4).
Data set [6] has as its system MCF7 cells. Description: Cytotoxicity assay (MTT), MCF7. Particulars: MCF7, 1 to 100 μM, 24 h. The format is cell-based. On the procedure:
as §1, §2

For data set [7] the following is noted: human subjects, 20 mg daily dose; read-out: mean maximum concentration (Cmax) in serum; cited from earlier work.
Data set [8] concerns Hep3B cells. Description: Cytotoxicity assay (MTT), Hep3B. It is filed as cell-based, human. The following applies: 1 to 100 μM, 24 h. On the procedure: as §1, §2
Data set [9] relates to Hela cells. Description: Cytotoxicity assay (MTT), HeLa. It is filed as cell-based. Particulars: 1 to 100 μM, 24 h. On the procedure:
as §1, §2

“Also recorded” adds a separate entry of the source. Read-outs that look alike come from different tables or passages of the source.

As for `Cc1n[nH]c(C)c1CCCOc1cc(C(=O)O)ccc1F` [Compound VIIc, 3-(3-(3,5-Dimethyl-1H-pyrazol-4-yl)propoxy)-4-fluorobenzoic acid], in data set [1], the ΔG1 is reported as ~−11.4, the ΔH1 was -13.6 kcal/mol, the ΔG2 is ~−8.8 and the ΔH2 is -7.5 kcal/mol. Further, in data set [2], the V122I-TTR tetramer stabilized is ~100%. Besides, the “cytotoxicity towards the cell lines tested” value in [3] was “not toxic; also recorded: no cytotoxic effects”. Further, in data set [4], the “TTR tetramer stabilization (% TTR tetramer)” value is 108+/−6%. In data set [5], the “covalent probe 6 binding to TTR relative to probe alone” value was 3.1±2.9%.
With `O=C(O)c1ccc2nc(-c3cc(Cl)cc(Cl)c3)oc2c1` [tafamidis], in data set [1], the ΔG1 is ~−11.4, the ΔH1 is -5.0 kcal/mol, the ΔG2 is given as ~−8.8 and the ΔH2 was -3.9 kcal/mol. Further, the “concentration at which cytotoxic effects were observed” value in data set [6] is > 50 µM. In data set [7], the Cmax was ~7.4 µM. Moreover, the “TTR tetramer stabilization (% TTR tetramer)” value in [4] was “about 58%+/−3”.
Take `Cc1n[nH]c(C)c1CCCOc1ccccc1F` [Compound A]: the Kd in data set [1] (read-out: Kd1) was determined as 58 nM; in [1] (read-out: Kd2) it was 500 nM. The “concentration at which toxicity to certain cell lines is displayed” value in [3] is > 25 µM. Besides, the “concentration at which cytotoxicity is shown” value in data set [8] and in data set [9] was > 25 µM each time. Also, the “TTR tetramer stabilization (% TTR tetramer)” value in data set [4] is on record as 61.7%+/−2.1. The “covalent probe 6 binding to TTR relative to probe alone” value in [5] is reported as 59.3±8.7%.
